The NIST ThermoML archive (doi:10.1016/j.jct.2018.02.013)
Numbers after ± are expanded uncertainties.

Experiments:
[1] = wn = mass fraction of the nth substance listed; details: 101 kPa, Liquid; for mass density: Vibrating tube method; for thermal conductivity: transient hot wire; for viscosity: Cone and plate viscometry; for electrical conductivity: Direct current cell with electrodes
[2] = molar heat capacity at constant pressure; wn = mass fraction of the nth substance listed; details: 101 kPa, Liquid, Small sample (50 mg) DSC

CCCC(=O)[O-].CCCCCCCCCCCCCC[P+](CCCCCC)(CCCCCC)CCCCCC [trihexyl(tetradecyl)phosphonium butyrate] + O
w2 = 0.1668
Details | electrical conductivity [S/m] | mass density [kg/m3] | molar heat capacity at constant pressure [J/K/mol] | thermal conductivity [W/m/K] | viscosity [mPa·s]
[1], 298.15 K | – | 907.8 ± 1.9 | – | 0.189 ± 0.01 | –
[1], 298.2 K | – | – | – | – | 61.46 ± 3.8
[1], 302.4 K | 0.11 ± 0.0049 | – | – | – | –
[1], 303.15 K | – | 904.6 ± 1.9 | – | – | –
[1], 303.2 K | – | – | – | – | 48.17 ± 3
[1], 303.9 K | 0.118 ± 0.0051 | – | – | – | –
[1], 307.87 K | – | – | – | 0.188 ± 0.01 | –
[1], 308.2 K | – | – | – | – | 38.54 ± 2.4
[1], 308.4 K | 0.14 ± 0.006 | – | – | – | –
[1], 313.15 K | – | 898.3 ± 1.9 | – | – | –
[1], 313.2 K | 0.168 ± 0.0072 | – | – | – | 31.4 ± 1.9
[1], 317.99 K | – | – | – | 0.1859 ± 0.011 | –
[1], 318.2 K | – | – | – | – | 25.96 ± 1.6
[1], 318.8 K | 0.205 ± 0.0086 | – | – | – | –
[1], 323.15 K | – | 891.9 ± 1.9 | – | – | –
[1], 323.2 K | 0.235 ± 0.0099 | – | – | – | 21.94 ± 1.3
[1], 327.77 K | – | – | – | 0.1848 ± 0.011 | –
[1], 328.2 K | – | – | – | – | 18.8 ± 1.1
[1], 328.4 K | 0.277 ± 0.012 | – | – | – | –
[1], 333.15 K | – | 885 ± 1.8 | – | – | –
[1], 333.2 K | – | – | – | – | 16.05 ± 0.98
[1], 333.4 K | 0.322 ± 0.013 | – | – | – | –
[1], 338.18 K | – | – | – | 0.1828 ± 0.011 | –
[1], 338.2 K | – | – | – | – | 13.85 ± 0.85
[1], 338.8 K | 0.38 ± 0.016 | – | – | – | –
[1], 343.15 K | – | 877.8 ± 1.8 | – | – | –
[1], 343.2 K | 0.423 ± 0.018 | – | – | – | 11.94 ± 0.73
[1], 347.9 K | – | – | – | 0.1818 ± 0.01 | –
[1], 348.2 K | – | – | – | – | 10.37 ± 0.63
[1], 349.7 K | 0.499 ± 0.021 | – | – | – | –
[1], 353.15 K | – | 870.5 ± 1.8 | – | – | –
[1], 353.2 K | – | – | – | – | 9.056 ± 0.55
[1], 358.2 K | – | – | – | 0.1808 ± 0.011 | 8.136 ± 0.5
[1], 363.15 K | – | 863.9 ± 1.8 | – | – | –
[1], 363.2 K | – | – | – | – | 7.26 ± 0.44
[1], 368.2 K | – | – | – | – | 7.063 ± 0.43
[2], 298.15 K | – | – | 316.94 ± 19 | – | –
[2], 303.15 K | – | – | 319.46 ± 20 | – | –
[2], 308.15 K | – | – | 321.6 ± 20 | – | –
[2], 313.15 K | – | – | 324.22 ± 20 | – | –
[2], 318.15 K | – | – | 327.2 ± 20 | – | –
[2], 323.15 K | – | – | 330.19 ± 20 | – | –
[2], 328.15 K | – | – | 333.45 ± 21 | – | –
[2], 333.15 K | – | – | 336.44 ± 21 | – | –
[2], 338.15 K | – | – | 340.64 ± 21 | – | –
[2], 343.15 K | – | – | 344.65 ± 21 | – | –
[2], 348.15 K | – | – | 348.29 ± 21 | – | –
[2], 353.15 K | – | – | 351.74 ± 22 | – | –
[2], 358.15 K | – | – | 356.22 ± 22 | – | –
[2], 363.15 K | – | – | 360.42 ± 22 | – | –

CCCCCC(=O)[O-].CCCCCCCCCCCCCC[P+](CCCCCC)(CCCCCC)CCCCCC [trihexyl(tetradecyl)phosphonium hexanoate] + O
w2 = 0.1583
Details | electrical conductivity [S/m] | mass density [kg/m3] | molar heat capacity at constant pressure [J/K/mol] | thermal conductivity [W/m/K] | viscosity [mPa·s]
[1], 298.15 K | – | 905 ± 1.9 | – | – | –
[1], 298.2 K | – | – | – | – | 79.44 ± 4.9
[1], 298.75 K | – | – | – | 0.1871 ± 0.01 | –
[1], 299.4 K | 0.0753 ± 0.0034 | – | – | – | –
[1], 303.15 K | – | 901.7 ± 1.9 | – | – | –
[1], 303.2 K | – | – | – | – | 63.83 ± 3.9
[1], 304 K | 0.0926 ± 0.004 | – | – | – | –
[1], 307.76 K | – | – | – | 0.1858 ± 0.0093 | –
[1], 308.1 K | 0.11 ± 0.0047 | – | – | – | –
[1], 308.2 K | – | – | – | – | 51.41 ± 3.1
[1], 313.15 K | – | 894.6 ± 1.9 | – | – | –
[1], 313.2 K | – | – | – | – | 41.45 ± 2.5
[1], 313.9 K | 0.132 ± 0.0056 | – | – | – | –
[1], 317.72 K | – | – | – | 0.1838 ± 0.01 | –
[1], 318.2 K | – | – | – | – | 34.56 ± 2.1
[1], 318.4 K | 0.16 ± 0.0068 | – | – | – | –
[1], 323.15 K | – | 888 ± 1.8 | – | – | –
[1], 323.2 K | – | – | – | – | 29.8 ± 1.8
[1], 323.6 K | 0.184 ± 0.0077 | – | – | – | –
[1], 327.36 K | – | – | – | 0.1824 ± 0.01 | –
[1], 328 K | 0.217 ± 0.0091 | – | – | – | –
[1], 328.2 K | – | – | – | – | 24.98 ± 1.5
[1], 333.15 K | – | 880.5 ± 1.8 | – | – | –
[1], 333.2 K | – | – | – | – | 20.36 ± 1.2
[1], 333.6 K | 0.252 ± 0.011 | – | – | – | –
[1], 337.88 K | – | – | – | 0.1814 ± 0.01 | –
[1], 338.2 K | – | – | – | – | 17.31 ± 1.1
[1], 338.9 K | 0.297 ± 0.012 | – | – | – | –
[1], 343 K | 0.331 ± 0.014 | – | – | – | –
[1], 343.15 K | – | 874.2 ± 1.8 | – | – | –
[1], 343.2 K | – | – | – | – | 15.85 ± 0.97
[1], 347.85 K | – | – | – | 0.1791 ± 0.011 | –
[1], 348.2 K | – | – | – | – | 13.19 ± 0.81
[1], 349.3 K | 0.391 ± 0.016 | – | – | – | –
[1], 353.15 K | – | 867.8 ± 1.8 | – | – | –
[1], 353.2 K | – | – | – | – | 11.18 ± 0.68
[1], 358.05 K | – | – | – | 0.1774 ± 0.011 | –
[1], 358.2 K | – | – | – | – | 10.4 ± 0.63
[1], 363.15 K | – | 861 ± 1.8 | – | – | –
[1], 363.2 K | – | – | – | – | 9.406 ± 0.57
[1], 368.2 K | – | – | – | – | 8.038 ± 0.49
[2], 298.15 K | – | – | 318.37 ± 20 | – | –
[2], 303.15 K | – | – | 320.43 ± 20 | – | –
[2], 308.15 K | – | – | 323.18 ± 20 | – | –
[2], 313.15 K | – | – | 325.93 ± 20 | – | –
[2], 318.15 K | – | – | 328.97 ± 20 | – | –
[2], 323.15 K | – | – | 332.11 ± 21 | – | –
[2], 328.15 K | – | – | 335.25 ± 21 | – | –
[2], 333.15 K | – | – | 339.17 ± 21 | – | –
[2], 338.15 K | – | – | 343.3 ± 21 | – | –
[2], 343.15 K | – | – | 347.22 ± 21 | – | –
[2], 348.15 K | – | – | 351.44 ± 22 | – | –
[2], 353.15 K | – | – | 353.31 ± 22 | – | –
[2], 358.15 K | – | – | 359 ± 22 | – | –
[2], 363.15 K | – | – | 365.08 ± 22 | – | –
